Like-named read-outs stand apart in the source and are kept apart here.

In one experiment the target is hKIF18A (1-374) (Homo sapiens (Human), UniProt Q8NI77). As to the kind of experiment: Inhibition of KIF18A microtubule-dependent ATPase activity (ADP-Glo).
Another experiment concerns HCC15 cells. The experiment is described as follows: Cell viability of KIF18a-sensitive cell lines, HCC15 (Cell Titre-Glo, 7 days). Format: cell-based. The settings on record: HCC-15 cells, 7 days, Cell Titre-Glo, read-out: HCC-15 IC50. The procedure: Cell Viability of KIF18a-Sensitive Cell Lines
Cell lines were seeded as follows 24 hours before compound treatment: HCC15 (Korean Cell Line Bank) 600 cell/well, 95 μL of RPMI-1640 media supplemented with 100 units/mL penicillin, 100 units/mL streptomycin and 10% FBS; NIH:OVCAR-3 (ATCC), 1000 cell/well, 95 μL of RPMI-1640 media supplemented with 100 units/mL penicillin, 100 units/mL streptomycin, 0.01 mg/mL bovine insulin, and 20% FBS; JIMT-1 (Addexbio) 1000 cell/well, 95 μL of DMEM media supplemented with 100 units/mL penicillin, 100 units/mL streptomycin, and 10% FBS.
Test compounds were added to cells in a 20× dilution scheme by adding 5 μL of serially diluted compound to the plate, and the treated cells were incubated for an additional 7 days in a 37° C., 5% CO2 incubator. DMSO was used as the negative control (0% effect), and wells omitting cells were used as the positive control (100% effect). The cells were incubated for seven days, and cell viability determined via the Promega Cell Titre-Glo® Assay kit. Luminescence units were converted to ATP concentrations via an ATP standard curve (10 point, 2-fold dilution from 5 uM). % Inhibition was calculated for each well as: ([max−min]−[test−min])/[max−min]. IC50 values were calculated from concentration vs. % Inhibition data via a four-parameter variable slope model.

Experiment [1] has as its target KIF18a-Microtubule Complex (Homo sapiens (Human), UniProt Q8NI77). As to the kind of experiment: Binding kinetics to KIF18a-microtubule complex (global progress curve analysis). Conditions: for kon (on-rate from binding kinetics assay) / koff (off-rate from binding kinetics assay): global progress curve analysis; for Ki: read-out: KI (determined from binding kinetic assay koff/kon), koff/kon; for koff: read-out: koff (off-rate from binding kinetics assay). The procedure:
Binding Kinetics to KIF18a-Microtubule Complex
Compound binding kinetics parameters (kon and koff) were determined by the method of global progress curve analysis (GPCA). […] ADP product levels were determined by the Promega® ADP-Glo assay. The time/dose-dependent progress curves were then globally fit to a Michaelis-Menten kinetics model with 1-step slow binding inhibition to derive both on-rate kon and off-rate koff values (Zhang, R., Wong, K. (2017): “High performance enzyme kinetics of turnover, activation and inhibition for translational drug discovery”, Expert Opinion on Drug Discovery, 2017 January; 12(1):17-37. doi: 10.1080/17460441.2017.1245721).

Where [2] appears, read: KIF18A microtubule-dependent ATPase activity, biochemical assay.

hKIF18A (1-374), sequence (Q8NI77 whole entry, looked up): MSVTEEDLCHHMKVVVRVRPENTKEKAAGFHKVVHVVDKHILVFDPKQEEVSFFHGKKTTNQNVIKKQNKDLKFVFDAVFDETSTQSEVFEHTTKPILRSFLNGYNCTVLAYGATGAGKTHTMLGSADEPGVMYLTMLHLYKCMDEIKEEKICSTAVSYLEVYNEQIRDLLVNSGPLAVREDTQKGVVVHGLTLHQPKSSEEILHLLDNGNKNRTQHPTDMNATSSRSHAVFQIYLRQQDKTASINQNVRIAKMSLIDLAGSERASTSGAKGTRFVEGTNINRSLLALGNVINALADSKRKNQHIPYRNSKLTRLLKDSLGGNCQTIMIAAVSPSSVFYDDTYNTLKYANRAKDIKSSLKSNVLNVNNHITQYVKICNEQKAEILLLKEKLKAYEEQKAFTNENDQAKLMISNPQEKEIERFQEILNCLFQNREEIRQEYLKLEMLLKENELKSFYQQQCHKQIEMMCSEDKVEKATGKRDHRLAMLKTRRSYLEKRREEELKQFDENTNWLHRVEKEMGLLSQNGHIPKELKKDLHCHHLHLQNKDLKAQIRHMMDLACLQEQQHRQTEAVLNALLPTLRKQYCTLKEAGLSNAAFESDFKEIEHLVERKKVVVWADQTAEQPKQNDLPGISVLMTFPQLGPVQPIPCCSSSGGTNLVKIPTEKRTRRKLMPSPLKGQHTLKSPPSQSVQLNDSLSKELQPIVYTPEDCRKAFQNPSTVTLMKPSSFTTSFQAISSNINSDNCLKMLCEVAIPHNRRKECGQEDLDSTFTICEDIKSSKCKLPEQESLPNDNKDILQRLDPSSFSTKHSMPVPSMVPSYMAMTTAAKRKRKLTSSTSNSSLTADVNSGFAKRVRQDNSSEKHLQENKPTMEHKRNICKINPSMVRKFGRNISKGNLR
hKIF18A (1-374), sequence (Q2XVP4 whole entry partner, looked up): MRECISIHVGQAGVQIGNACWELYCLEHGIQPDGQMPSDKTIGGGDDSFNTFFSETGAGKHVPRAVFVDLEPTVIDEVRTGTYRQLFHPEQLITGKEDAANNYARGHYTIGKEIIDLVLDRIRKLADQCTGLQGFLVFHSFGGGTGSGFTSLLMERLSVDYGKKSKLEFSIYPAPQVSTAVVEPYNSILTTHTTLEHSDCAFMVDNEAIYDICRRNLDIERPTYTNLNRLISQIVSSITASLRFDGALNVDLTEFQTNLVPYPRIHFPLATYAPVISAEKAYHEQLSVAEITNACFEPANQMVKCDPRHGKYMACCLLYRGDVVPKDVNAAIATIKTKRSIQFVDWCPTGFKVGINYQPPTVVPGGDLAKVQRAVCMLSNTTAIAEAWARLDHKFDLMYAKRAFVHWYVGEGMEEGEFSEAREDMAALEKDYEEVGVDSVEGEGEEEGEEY
hKIF18A (1-374), sequence (P02554 whole entry partner, looked up): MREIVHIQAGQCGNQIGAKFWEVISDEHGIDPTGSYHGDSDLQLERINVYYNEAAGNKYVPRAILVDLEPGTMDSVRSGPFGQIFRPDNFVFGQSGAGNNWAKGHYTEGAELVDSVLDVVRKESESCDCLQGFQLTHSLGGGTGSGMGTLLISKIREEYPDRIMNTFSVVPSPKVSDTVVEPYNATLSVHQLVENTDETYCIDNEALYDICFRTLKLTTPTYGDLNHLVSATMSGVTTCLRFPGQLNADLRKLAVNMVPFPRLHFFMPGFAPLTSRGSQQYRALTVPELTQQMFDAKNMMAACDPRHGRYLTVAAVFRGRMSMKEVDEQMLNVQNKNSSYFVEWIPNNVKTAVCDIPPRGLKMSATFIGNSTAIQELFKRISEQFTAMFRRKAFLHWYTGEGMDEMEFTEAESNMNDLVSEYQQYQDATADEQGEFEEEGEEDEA
KIF18a-Microtubule Complex, sequence (Q8NI77 whole entry, looked up): as the sequence (Q8NI77 whole entry, looked up) above
KIF18a-Microtubule Complex, sequence (Q2XVP4 whole entry partner, looked up): as the sequence (Q2XVP4 whole entry partner, looked up) above
KIF18a-Microtubule Complex, sequence (P02554 whole entry partner, looked up): as the sequence (P02554 whole entry partner, looked up) above

At hKIF18A (1-374) (setting [2]), `CS(=O)(=O)Nc1ccc2c(c1)C1(CCCCC1)CN2C(=O)c1cccc(S(=O)(=O)N2CCC(F)(F)CC2)c1` [Compound 19, N-(1′-(3-((4,4-difluoropiperidin-1-yl)sulfonyl)benzoyl)spiro[cyclohexane-1,3′-indolin]-5′-yl)methanesulfonamide] returned a half-maximal inhibitory concentration (IC50) of 0.032 µM. For the same compound, the concentration for half-maximal inhibition (IC50) with HCC15 cells (HCC15, 168 h) was 0.092 µM. In experiment [1], the “kon (on-rate from binding kinetics assay)” value (shortened to “kon”) turned out to be 14200 M⁻¹ s⁻¹, the “disc. t1/2 (dissociation half-life ln(2)/koff)” value is on record as 7.2 h, the Ki amounted to 0.0018 µM and the koff was 2.67e-05 s⁻¹.
For `CS(=O)(=O)Nc1ccc2c(c1)C1(CCC3(CC3)CC1)CN2C(=O)c1cccc(S(=O)(=O)N2CCCCC2)c1` [Compound 20, N-(1″-(3-(piperidin-1-ylsulfonyl)benzoyl)dispiro[cyclopropane-1,1′-cyclohexane-4′,3″-indolin]-5″- yl)methanesulfonamide], the IC50 worked out at 0.013 µM at hKIF18A (1-374) (setting [2]) and 0.025 µM in the experiment with HCC15 cells (HCC15, 168 h).
For the compound `CS(=O)(=O)Nc1ccc2c(c1)C1(CCC3(CC3)CC1)CN2C(=O)c1cccc(S(=O)(=O)N2CCCC2)c1` [Compound 21, N-(1″-(3-(pyrrolidin-1-ylsulfonyl)benzoyl)dispiro[cyclopropane-1,1′-cyclohexane-4′,3″-indolin]-5″- yl)methanesulfonamide], the IC50 was 0.019 µM against hKIF18A (1-374) (setting [2]) and 0.055 µM with HCC15 cells (HCC15, 168 h).
As to `CC1CCC2(CC1)CN(C(=O)c1cccc(S(=O)(=O)N3CCC(F)(F)CC3)c1)c1ccc(NS(C)(=O)=O)cc12` (centres unmarked) [Compound 24, N-(1′-(3-((4,4-difluoropiperidin-1-yl)sulfonyl)benzoyl)-4-methylspiro[cyclohexane-1,3′-indolin]-5′-yl)methanesulfonamide], the IC50 against hKIF18A (1-374) stood at 0.01 µM; in the experiment on HCC15 cells (HCC15, 168 h) it was 0.023 µM.
As for `CC(C)(C)NS(=O)(=O)c1cccc(C(=O)N2CC3(CCCCC3)c3cc(NS(C)(=O)=O)ccc32)c1` [Compound 26, N-(tert-butyl)-3-(5′-(methylsulfonamido)spiro[cyclohexane-1,3′-indoline]-1′-carbonyl)benzenesulfonamide], the IC50 against hKIF18A (1-374) (setting [2]) was 0.067 µM; in the experiment on HCC15 cells (HCC15, 168 h), 0.069 µM.
In the case of `CS(=O)(=O)Nc1ccc2c(c1)C1(CCC3(CC3)CC1)CN2C(=O)c1cccc(S(=O)(=O)N2CCC(F)(F)CC2)c1` [Compound 28, N-(1″-(3-((4,4-difluoropiperidin-1-yl)sulfonyl)benzoyl)dispiro[cyclopropane-1,1′-cyclohexane-4′,3″-indolin]-5″-yl)methanesulfonamide], the IC50 against hKIF18A (1-374) (setting [2]) was determined as 0.01 µM; with HCC15 cells (HCC15, 168 h), 0.024 µM.
For `O=C(c1cccc(S(=O)(=O)N2CCC(F)(F)CC2)c1)N1CC2(CCC3(CC3)CC2)c2cc(NS(=O)(=O)CCO)ccc21` [Compound 29, N-(1″-(3-((4,4-difluoropiperidin-1-yl)sulfonyl)benzoyl)dispiro[cyclopropane-1,1′-cyclohexane-4′,3″-indolin]-5″-yl)-2-hydroxyethane-1-sulfonamide] the same measures were 0.022 µM and 0.33 µM.
As to `CS(=O)(=O)Nc1ccc2c(c1)C1(CCCCC1)CN2C(=O)c1cccc([S+]([O-])C2CCCC2)c1` (centres unmarked) [Compound 43, N-(1′-(3-(cyclopentylsulfinyl)benzoyl)spiro [cyclohexane-1,3′-indolin]-5′-yl)methanesulfonamide], the IC50 against hKIF18A (1-374) (setting [2]) turned out to be 0.089 µM; in the experiment with HCC15 cells (HCC15, 168 h), 0.49 µM.
`CS(=O)(=O)Nc1ccc2c(c1)C1(CCCCC1)CN2C(=O)c1cccc(S(=O)(=O)C2CCCCC2)c1` [Compound 70, N-(1′-(3-(cyclohexylsulfonyl)benzoyl)spiro[cyclohexane-1,3′-indolin]-5′-yl)methanesulfonamide] returned an IC50 against hKIF18A (1-374) (setting [2]) of 0.03 µM. Also, the 50% inhibitory concentration (IC50) with HCC15 cells (HCC15, 168 h) was found to be 0.59 µM. For the same compound, in experiment [1], the “kon” value turned out to be 10000 M⁻¹ s⁻¹, the “disc. t1/2 (dissociation half-life ln(2)/koff)” value is 3.0 h, the Ki came out at 0.0065 µM and the koff was 6.39e-05 s⁻¹.
`CC1CCC2(CC1)CN(C(=O)c1cccc(S(=O)(=O)NC(C)(C)C)c1)c1ccc(NS(C)(=O)=O)cc12` (centres unmarked) [Compound 140, N-(tert-butyl)-3-(4-methyl-5′-(methylsulfonamido)spiro[cyclohexane-1,3′-indoline]-1′-carbonyl)benzenesulfonamide]: the IC50 stood at 0.013 µM at hKIF18A (1-374) (setting [2]) and 0.038 µM in the experiment with HCC15 cells (HCC15, 168 h).
As for `CC(C)(C)NS(=O)(=O)c1cccc(C(=O)N2C[C@]3(CC[C@H](C)CC3)c3cc(NS(C)(=O)=O)ccc32)c1` [Compound 140a], the half-maximal inhibitory concentration (IC50) in the experiment with HCC15 cells came to 0.01 µM. In experiment [1], the “koff (off-rate from binding kinetics assay)” value was 6.67e-06 s⁻¹, the “kon” value was 13100 M⁻¹ s⁻¹, the “disc. t1/2 (dissociation half-life ln(2)/koff)” value was 29 h and the Ki is 0.0005 µM.
Turning to `CC(C)(C)NS(=O)(=O)c1cccc(C(=O)N2C[C@]3(CC[C@@H](C)CC3)c3cc(NS(C)(=O)=O)ccc32)c1` [Compound 140b], the IC50 in the experiment with HCC15 cells was determined as 0.045 µM. In experiment [1], the “koff (off-rate from binding kinetics assay)” value came out at 2.22e-05 s⁻¹, the “kon” value turned out to be 16100 M⁻¹ s⁻¹, the “disc. t1/2 (dissociation half-life ln(2)/koff)” value is on record as 8.7 h and the Ki came to 0.0014 µM.
On hKIF18A (1-374) (setting [2]), `CC(C)(C)NS(=O)(=O)c1cccc(C(=O)N2CC3(CCC4(CC4)CC3)c3cc(NS(=O)(=O)CCO)ccc32)c1` [Compound 148, N-(tert-butyl)-3-(5″-((2-hydroxyethyl)sulfonamido)dispiro [cyclopropane-1,1′-cyclohexane-4′,3″- indoline]-1″- carbonyl)benzenesulfonamide] yielded an IC50 of 0.012 µM. Besides, the IC50 in the experiment on HCC15 cells (HCC15, 168 h) was determined as 0.036 µM. In experiment [1], the “kon” value turned out to be 13600 M⁻¹ s⁻¹, the “disc. t1/2 (dissociation half-life ln(2)/koff)” value came to 48 h, the Ki is 0.00029 µM and the koff was 3.89e-06 s⁻¹.
Take `CS(=O)(=O)Nc1ccc2c(c1)C1(CCC3(CC3)CC1)CN2C(=O)c1cccc(S(=O)(=O)N2CC3(CCO3)C2)c1` [Compound 153, N-(1″-(3-((1-oxa-6-azaspiro[3.3]heptan-6-yl)sulfonyl)benzoyl)dispiro[cyclopropane-1,1′-cyclohexane-4′,3″-indolin]-5″- yl)methanesulfonamide]: the IC50 at hKIF18A (1-374) (setting [2]) was 0.018 µM; with HCC15 cells (HCC15, 168 h), 0.044 µM.
Take `CS(=O)(=O)Nc1ccc2c(c1)C1(CCC3(CC3)CC1)CN2C(=O)c1cccc(S(=O)(=O)NC2CCC2)c1` [Compound 168, N-cyclobutyl-3-(5″- (methylsulfonamido)dispiro[cyclopropane-1,1′-cyclohexane-4′,3″-indoline]-1″-carbonyl)benzenesulfonamide]: the half-inhibitory concentration (IC50) worked out at 0.0055 µM against hKIF18A (1-374) (setting [2]) and 0.028 µM with HCC15 cells (HCC15, 168 h).
As to `CS(=O)(=O)Nc1ccc2c(c1)C1(CCC3(CC3)CC1)CN2C(=O)c1cccc(S(=O)(=O)NC2CC=CC2)c1` [Compound 172, N-(cyclopent-3-en-1-yl)-3-(5″- (methylsulfonamido)dispiro[cyclopropane-1,1′-cyclohexane-4′,3″-indoline]-1″-carbonyl)benzenesulfonamide], the IC50 against hKIF18A (1-374) (setting [2]) came to 0.0055 µM; in the experiment with HCC15 cells (HCC15, 168 h), 0.032 µM.

The record behind these values is patent publication US12084420B2, “Indoline compounds for inhibiting KIF18A” (Volastra Therapeutics, Inc., priority 2021, dated 2024).
